Assay results from US8394952B2 (Vertex Pharmaceuticals Incorporated, priority 2006, dated 2013).

Target: Plk1 (Homo sapiens, UniProt P53350)
Assay: biochemical

Plk1, sequence (P53350 20-338): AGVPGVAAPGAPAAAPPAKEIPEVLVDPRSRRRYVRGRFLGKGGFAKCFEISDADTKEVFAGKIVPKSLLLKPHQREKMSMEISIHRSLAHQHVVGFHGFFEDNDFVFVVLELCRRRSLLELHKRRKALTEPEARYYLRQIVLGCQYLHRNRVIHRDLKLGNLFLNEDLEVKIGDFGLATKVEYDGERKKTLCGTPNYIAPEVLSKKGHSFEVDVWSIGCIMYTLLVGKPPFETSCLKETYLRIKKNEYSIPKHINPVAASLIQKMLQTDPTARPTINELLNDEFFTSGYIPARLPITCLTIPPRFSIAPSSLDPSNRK

`COc1cc(C(=O)NC(C)C)ccc1Nc1ncc2c(n1)N(C1CCCC1)CC1(CC1)C(=O)N2C` [Compound I-263, 4-(9′-cyclopentyl-5′-methyl-6′-oxo-5′,6′,8′,9′-tetrahydrospiro[cyclopropane-1,7′-pyrimido[4,5-b][1,4]diazepine]-2′-ylamino)-N-isopropyl-3-methoxybenzamide] and `CNC(=O)c1ccc(Nc2ncc3c(n2)N(C2CCCC2)CC(C)(C)C(=O)N3C)c(OC)c1` [Compound I-16, 4-(9-cyclopentyl-6,7,8,9-tetrahydro-5,7,7-trimethyl-6-oxo-5H-pyrimido[4,5-b][1,4]diazepin-2-ylamino)-3-methoxy-N-methylbenzamide] cannot be ordered by Ki: < 10 nM for the first, < 10 nM for the second.

First: CNC(=O)c1ccc(Nc2ncc3c(n2)N(C(C)C)CC(C)(C)C(=O)N3C)c(OC)c1 [Compound I-35, 4-(6,7,8,9-tetrahydro-9-isopropyl-5,7,7-trimethyl-6-oxo-5H-pyrimido[4,5-b][1,4]diazepin-2-ylamino)-3-methoxy-N-methylbenzamide]
Second: CNC(=O)c1ccc(Nc2ncc3c(n2)N(C2CCC2)CC(C)(C)C(=O)N3C)c(OC)c1 [Compound I-167, 4-(9-cyclobutyl-6,7,8,9-tetrahydro-5,7,7-trimethyl-6-oxo-5H-pyrimido[4,5-b][1,4]diazepin-2-ylamino)-3-methoxy-N-methylbenzamide]
The Ki of the first is higher: 10 to 100 nM for the first, < 10 nM for the second. The second binds more tightly here.

`COc1cc(C(=O)N[C@@H]2CCc3ccccc32)ccc1Nc1ncc2c(n1)N(C1CCCC1)CC(C)(C)C(=O)N2C` [Compound I-209, (R)-4-(9-cyclopentyl-5,7,7-trimethyl-6-oxo-6,7,8,9-tetrahydro-5H-pyrimido[4,5-b][1,4]diazepin-2-ylamino)-N-(2,3-dihydro-1H-inden-1yl)-3-methoxy-benzamide] and `COc1cc(C(=O)N[C@H](C)c2ccccc2)ccc1Nc1ncc2c(n1)N(C1CCCC1)CC(C)(C)C(=O)N2C` [Compound I-226, (R)-4-(9-cyclopentyl-5,7,7-trimethyl-6-oxo-6,7,8,9-tetrahydro-5H-pyrimido[4,5-b][1,4]diazepin-2-ylamino)-3-methoxy-N-(1-phenylethyl)benzamide] cannot be ordered by Ki: < 10 nM for the first, < 10 nM for the second.

`CN1C(=O)C(C)(C)CN(C2CCCC2)c2nc(Nc3ccc(N4CCOCC4)cc3)ncc21` [Compound I-63, 2-(4-morpholinophenylamino)-9-cyclopentyl-8,9-dihydro-5,7,7-trimethyl-5H-pyrimido[4,5-b][1,4]diazepin-6(7H)-one] and `CN1C(=O)C(C)(C)CN(C2CCCC2)c2nc(Nc3ccc(N)cc3)ncc21` [Compound I-117, 2-(4-aminophenylamino)-9-cyclopentyl-8,9-dihydro-5,7,7-trimethyl-5H-pyrimido[4,5-b][1,4]diazepin-6(7H)-one] fall in the same range of Ki: 10 to 100 nM for the first, 10 to 100 nM for the second.

`COc1cc(C(=O)N[C@H](CO)C(C)C)ccc1Nc1ncc2c(n1)N(C1CCCC1)CC(C)(C)C(=O)N2C` [Compound I-239, (S)-4-(9-cyclopentyl-5,7,7-trimethyl-6-oxo-6,7,8,9-tetrahydro-5H-pyrimido[4,5-b][1,4]diazepin-2-ylamino)-N-(1-hydroxy-3-methylbutan-2-yl)-3-methoxybenzamide] and `COc1cc(C(=O)NC(C)(C)CO)ccc1Nc1ncc2c(n1)N(C1CCCC1)CC(C)(C)C(=O)N2C` [Compound I-240, 4-(9-cyclopentyl-5,7,7-trimethyl-6-oxo-6,7,8,9-tetrahydro-5H-pyrimido[4,5-b][1,4]diazepin-2-ylamino)-N-(1-hydroxy-2-methylpropan-2-yl)-3-methoxybenzamide] cannot be ordered by Ki: < 10 nM for the first, < 10 nM for the second.

`COc1cc(C(=O)NCc2cccnc2)ccc1Nc1ncc2c(n1)N(C1CCCC1)CC1(CC1)C(=O)N2C` [Compound I-249, 4-(9′-cyclopentyl-5′-methyl-6′-oxo-5′,6′,8′,9′-tetrahydrospiro[cyclopropane-1,7′-pyrimido[4,5-b][1,4]diazepine]-2′-ylamino)-3-methoxy-N-(pyridin-3-ylmethyl)benzamide] and `COc1cc(C(=O)NC2CCOCC2)ccc1Nc1ncc2c(n1)N(C1CCCC1)CC1(CC1)C(=O)N2C` [Compound I-177, 4-(9′-cyclopentyl-5′-methyl-6′-oxo-5′,6′,8′,9′-tetrahydrospiro[cyclopropane-1,7′-pyrimido[4,5-b][1,4]diazepine]-2′-ylamino)-3-methoxy-N-(tetrahydro-2H-pyran-4-yl)benzamide] cannot be ordered by Ki: < 10 nM for the first, < 10 nM for the second.

`COc1ccc(NC(C)=O)cc1Nc1ncc2c(n1)N(C1CCCC1)CC(C)(C)C(=O)N2C` [Compound I-158, N-(3-(9-cyclopentyl-6,7,8,9-tetrahydro-5,7,7-trimethyl-6-oxo-5H-pyrimido[4,5-b][1,4]diazepin-2-ylamino)-4-methoxyphenyl)acetamide] and `COc1cc(C(=O)NCCCO)ccc1Nc1ncc2c(n1)N(C1CCCC1)CC(C)(C)C(=O)N2C` [Compound I-241] cannot be ordered by Ki: < 10 nM for the first, < 10 nM for the second.

`COc1cc(C(=O)NC2CC3CCC2C3)ccc1Nc1ncc2c(n1)N(C1CCCC1)CC(C)(C)C(=O)N2C` (stereo not drawn) [Compound I-210, N-(bicyclo[2.2.1]heptan-2-yl)-4-(9-cyclopentyl-5,7,7-trimethyl-6-oxo-6,7,8,9-tetrahydro-5H-pyrimido[4,5-b][1,4]diazepin-2-ylamino)-3-methoxybenzamide] and `COc1cc(C(=O)N[C@H]2CC[C@H](OC(C)=O)CC2)ccc1Nc1ncc2c(n1)N(C1CCCC1)CC(C)(C)C(=O)N2C` [Compound I-280, (1r,4r)-4-(4-(9-cyclopentyl-5,7,7-trimethyl-6-oxo-6,7,8,9-tetrahydro-5H-pyrimido[4,5-b][1,4]diazepin-2-ylamino)-3-methoxybenzamido)cyclohexyl acetate] cannot be ordered by Ki: < 10 nM for the first, < 10 nM for the second.

`CC[C@H]1CN(C2CCCC2)c2nc(Nc3ccc(C(=O)NC4CCN(C)CC4)cc3OC)ncc2N(C)C1=O` [Compound I-113, 4-((S)-9-cyclopentyl-7-ethyl-6,7,8,9-tetrahydro-5-methyl-6-oxo-5H-pyrimido[4,5-b][1,4]diazepin-2-ylamino)-3-methoxy-N-(1-methylpiperidin-4-yl)benzamide] and `COc1cc(C(=O)NC2CCOCC2)ccc1Nc1ncc2c(n1)N(C1CCCC1)C[C@H](C)C(=O)N2C` [Compound I-174, 4-((S)-9-cyclopentyl-6,7,8,9-tetrahydro-5,7-dimethyl-6-oxo-5H-pyrimido[4,5-b][1,4]diazepin-2-ylamino)-N-(tetrahydro-2H-pyran-4-yl)-3-methoxybenzamide] cannot be ordered by Ki: < 10 nM for the first, < 10 nM for the second.

`CN1C(=O)C(C)(C)CN(C2CCCC2)c2nc(Nc3ccc4[nH]ncc4c3)ncc21` [Compound I-114, 2-(1H-indazo-5-ylamino)-9-cyclopentyl-8,9-dihydro-5,7,7-trimethyl-5H-pyrimido[4,5-b][1,4]diazepin-6(7H)-one] and `CN1C(=O)C(C)(C)CN(C2CCCC2)c2nc(Nc3ccccc3)ncc21` [Compound I-90, 9-cyclopentyl-8,9-dihydro-5,7,7-trimethyl-2-(phenylamino)-5H-pyrimido[4,5-b][1,4]diazepin-6(7H)-one] fall in the same range of Ki: 10 to 100 nM for the first, 10 to 100 nM for the second.

Compared with `CCOc1cc(C(=O)NC2CCN(C(C)C)CC2)ccc1Nc1ncc2c(n1)N(C1CCCC1)CC(C)(C)C(=O)N2C` [Compound I-135, 4-(9-cyclopentyl-6,7,8,9-tetrahydro-5,7,7-trimethyl-6-oxo-5H-pyrimido[4,5-b][1,4]diazepin-2-ylamino)-3-ethoxy-N-(1-isopropylpiperidin-4-yl)benzamide], `CNC(=O)c1ccc(Nc2ncc3c(n2)N(C2CCCC2)CC(C)(C)C(=O)N3C)c(OC(C)C)c1` [Compound I-50, 4-(9-cyclopentyl-6,7,8,9-tetrahydro-5,7,7-trimethyl-6-oxo-5H-pyrimido[4,5-b][1,4]diazepin-2-ylamino)-3-isopropoxy-N-methylbenzamide] is higher in Ki: < 10 nM for the first, 10 to 100 nM for the second. The first binds more tightly here.

`COc1ccccc1Nc1ncc2c(n1)N(C1CCCC1)CCC(=O)N2C` [Compound I-188, 9-cyclopentyl-2-(2-methoxyphenylamino)-5-methyl-8,9-dihydro-5H-pyrimido[4,5-b][1,4]diazepin-6(7H)-one] and `COc1cc(C(=O)O)ccc1Nc1ncc2c(n1)N(C1CCCC1)CCC(=O)N2C` [Compound I-1, 4-(9-Cyclopentyl-6,7,8,9-tetrahydro-5-methyl-6-oxo-5H-pyrimido[4,5-b][1,4]diazepin-2-ylamino)-3-methoxybenzoic acid] fall in the same range of Ki: 10 to 100 nM for the first, 10 to 100 nM for the second.

`CN1C(=O)C(C)(C)CN(C2CCCC2)c2nc(Nc3cccc(-c4cccnc4)c3)ncc21` [Compound I-153, 2-(3-(pyridin-3-yl)phenylamino)-9-cyclopentyl-8,9-dihydro-5,7,7-trimethyl-5H-pyrimido[4,5-b][1,4]diazepin-6(7H)-one] and `CN1C(=O)C(C)(C)CN(C2CCCC2)c2nc(Nc3cccc(NS(C)(=O)=O)c3)ncc21` [Compound I-150, N-[3-(9-cyclopentyl-5,7,7-trimethyl-6-oxo-6,7,8,9-tetrahydro-5H-pyrimido[4,5-b][1,4]diazepin-2-ylamino)-phenyl]-methanesulfonamide] fall in the same range of Ki: 10 to 100 nM for the first, 10 to 100 nM for the second.

`CN1C(=O)C(C)(C)CN(C2CCCC2)c2nc(Nc3cccc(C(=O)NC4CNC4)c3)ncc21` [Compound I-156, 3-(9-cyclopentyl-6,7,8,9-tetrahydro-5,7,7-trimethyl-6-oxo-5H-pyrimido[4,5-b][1,4]diazepin-2-ylamino)-N-(azetidin-3-yl)benzamide] and `CN1C(=O)Cc2cc(Nc3ncc4c(n3)N(C3CCCC3)CC(C)(C)C(=O)N4C)ccc21` [Compound I-125, 2-(1-methyl-2-oxoindolin-5-ylamino)-9-cyclopentyl-8,9-dihydro-5,7,7-trimethyl-5H-pyrimido[4,5-b][1,4]diazepin-6(7H)-one] fall in the same range of Ki: 10 to 100 nM for the first, 10 to 100 nM for the second.

Compared with `CNC(=O)c1ccc(Nc2ncc3c(n2)N(c2cccc(Cl)c2)CC(C)(C)C(=O)N3C)c(OC)c1` [Compound I-161, 4-(9-(3-chlorophenyl)-6,7,8,9-tetrahydro-5,7,7-trimethyl-6-oxo-5H-pyrimido[4,5-b][1,4]diazepin-2-ylamino)-3-methoxy-N-methylbenzamide], `CNC(=O)c1ccc(Nc2ncc3c(n2)N(CC2CC2(F)F)CC(C)(C)C(=O)N3C)c(OC)c1` (stereo not drawn) [Compound I-169, 4-(9-((2,2-difluorocyclopropyl)methyl)-6,7,8,9-tetrahydro-5,7,7-trimethyl-6-oxo-5H-pyrimido[4,5-b][1,4]diazepin-2-ylamino)-3-methoxy-N-methylbenzamide] is lower in Ki: 10 to 100 nM for the first, < 10 nM for the second. The second binds more tightly here.
